Assay results from patent publication US20110269166A1, “SEALING SURFACE SAMPLING PROBE APPLIED TO BLOOD SPOTS AND TISSUES” (UT-BATTELLE, LLC, priority 2010, published 2011).

Test: SSSP-MS/MS spot sampling of whole-body thin tissue sections of a propranolol dosed mouse
Assay type: in vivo
Conditions: male CD-1 mouse, propranolol 7.5 mg/kg i.v., sacrificed 60 min post-dose, 40 μm section, ESI+
Method: At 60 min post-dose, mice were euthanized with an isoflurane overdose and immediately frozen in dry ice/hexane. The frozen mice were embedded/blocked in 2% aqueous carboxymethyl cellulose. Sagittal whole-body cryosections (40 μm thick) were prepared using a Leica CM3600 cryomacrotome and collected onto adhesive tape (8″×3″, 810 Scotch® Brand Magic™ Tape, 3M) then freeze-dried within the chamber of the cryomacrotome. Prior to analysis using the SSSP, tissue sections were stored in a desiccator at room temperature. Color images of the tissue sections were acquired using a HP Scanjet 4370 flat-bed scanner (Hewlett-Packard, Palo Alto, Calif., USA).
The inlet and outlet of the SSSP (“TLC-MS interface”, CAMAG, Muttenz, Switzerland) were coupled to an ACQUITY UltraPerformance Liquid Chromatography (UPLC) system (Waters Corporation, Manchester, UK) and to a 4000 QTRAP® mass spectrometer (MDS SCIEX, Concord, Ontario, Canada), respectively (see FIG. S1 in the Supplemental section). The gas pressure applied via a piston to the plunger of the SSSP interface was about 5 bar. The flow rate of the extraction solvent was 200 μL/min in all cases. For positive ion mode ESI, the emitter voltage was 5 kV and the turbo sprayer heater temperature was 300° C. For positive ion mode APCI, heated nebulizer probe temperature and needle current were 350° C. and 5 μA, respectively.
The extraction solvent flow paths and the individual steps of the surface sampling process with the SSSP are illustrated in FIGS. 3A-3E and 4A-4E. The solvent inlet capillary to the SSSP was connected to the UPLC pump, while the outlet capillary was connected to the ion source (ESI or APCI) of the mass spectrometer. At the beginning of a surface sampling experiment, a sample was positioned under the SSSP plunger while the extraction solvent flowed from the UPLC through a loop into the ion source (as in FIGS. 3A and 4A). Next, the SSSP stainless steel plunger, with 4-mm-diameter disk shape cutting edge, was lowered to seal the sampling area by cutting into and compressing the sample substrate (paper or adhesive tape in this case) (as in FIGS. 3B and 4B). By switching the valve from standby to extraction mode, the solvent previously being pumped directly to the ion source was diverted to the surface, where it extracted the analyte, and any other soluble components, and carried them into the ion source (FIGS. 3C and 4C). After a suitable extraction time (typically 60 seconds), the valve was switched back to direct the extraction solvent from the UPLC through the loop into the ion source (FIGS. 3D and 4D). […] In the final step of the surface sampling process, the plunger was raised up from the surface (FIGS. 3E and 4E) and then a cleaning station was positioned under the probe. Here, using push button control, the sampling face of the plunger was cleaned of accumulated particulate material using a stream of pressurized nitrogen. In the case of the tissue sections on tape, the probe actually cut out a section from the sample which stayed with the probe until removed by this gas jet cleaning. […] This washed the SSSP plunger face and tubing from the plunger to the valve and on into the ion source. Given 15 or 30 s to position the probe for analysis of a DBS or tissue sample spot, respectively, a 60 second extraction time and 60 s wash time to eliminate carryover, spot-to-spot analysis time was either […].
The tissue section was collected onto an adhesive tape substrate, which is a common format to collect whole-body tissue sections for WBA analyses.

SRM signal in brain (spot 2) | SRM signal in heart (spot 5) | SRM signal in kidney (spot 3) | SRM signal in liver (spot 1) | SRM signal in lung (spot 6) | Molecule
High | – | – | – | – | CC(C)NCC(O)COc1cccc2ccccc12 (stereo not drawn) [propranolol, reference compound]
not detected | Much lower | highest | highest | Much lower | hydroxypropranolol glucuronide
